Entries after “also recorded” stand apart in the source; their conditions may differ. Where two headings read alike, the source gives them in different places. Marks after values point to notes of the source that are not given here.
Experiments:
[1] = molecular target: T1, TauA (Escherichia coli, UniProt Q47537); test: Isothermal titration calorimetry, ligand binding to wild-type TauA; design: species or system E. coli
T1 construct: His tag with TEV site (pEHisTEV vector) (cleaved yes); made in house; host or cells: E. coli BL21 (DE3)
T1 sequence (Q47537 23-320): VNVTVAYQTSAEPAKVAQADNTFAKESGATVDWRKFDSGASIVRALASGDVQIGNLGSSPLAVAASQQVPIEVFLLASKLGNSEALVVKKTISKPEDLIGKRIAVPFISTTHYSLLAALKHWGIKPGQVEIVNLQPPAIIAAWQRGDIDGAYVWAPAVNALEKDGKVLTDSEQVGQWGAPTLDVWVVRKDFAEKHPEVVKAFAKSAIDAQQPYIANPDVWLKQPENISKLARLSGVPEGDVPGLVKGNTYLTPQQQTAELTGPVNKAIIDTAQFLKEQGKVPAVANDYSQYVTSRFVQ
Experimental: The gene encoding for the mature TauA from E. coli (accession number: K12-Q47537) was cloned into the pEHisTEV vector. BL21 (DE3) cells transformed with pEHisTEVtauA plasmid were grown at 310 K. Isopropyl β-D-1-thiogalactopyranoside was added to a final concentration of 0.5 mM when the culture reached an OD600 of 0.6, and the growth continued at 298 K for 18 h. Cells were harvested by centrifugation (6000×g) and resuspended in PBS supplemented with 20 mM imidazole and 3 mM MgCl2. Cells were lysed by sonication (10 cycles; 10 s per cycle with 10 s interval on ice) followed by centrifugation at 30 000 g for 1 h. The supernatant was subjected to Ni-NTA affinity chromatography followed by overnight dialysis with TEV protease and size exclusion chromatography using a Superdex S-200 column equilibrated with 20 mM Tris (pH 7.5) and 150 mM NaCl. […] SDS–PAGE indicated high purity.
(§1) Binding of ligands to TauA and mutants was measured at 298 K using ITC (MicroCal iTC200 microcalorimeter, Malvern Instruments). The protein buffer was in 20 mM Tris (pH 7.5) and 150 mM NaCl (ITC buffer). Protein and ligands were diluted to desired concentrations using ITC buffer. The pH of protein and ligand was adjusted at 277 K. An amount of 200 µl of protein and 60 µl of ligand was added into the sample cell and injection syringe, respectively. Seventeen 2.4 µl injections were performed with a pre-injection of 0.5 µl, a 180 s interval and an injection speed of 0.5 µl/s. Control experiments were performed where ligand was injected into ITC buffer. The heat of interaction was obtained by subtracting control measurements (heat of dilution) from the experimental measurements. The baseline was generated and the concentration-normalized binding isotherm was integrated using the MicroCal Origin software (version 7). The first injection peak was deleted from the isotherm. The isotherm was fitted to a single-site binding model. Values of binding constant (Ka, M^−1), enthalpy change (ΔH, J/mol) and binding stoichiometry (n) were allowed to vary (unless mentioned specifically) during the fitting procedure. The dissociation constant (Kd, M) and entropy change (ΔS, J/mol/K) were derived from Ka, ΔH and n accordingly. The Kd value is derived from the absolute value of Ka (Kd = 1/Ka).

[2] = molecular target: TauA Asp205Ala (Escherichia coli, UniProt Q47537, D205A); test: biochemical; format: binding, E. coli; details: Asp205Ala mutant
Sequence of TauA Asp205Ala (Q47537 23-320 D205A): as the sequence (Q47537 23-320) above, with D183A counted along it
Experimental: (§2) Alanine-substituted TauA mutants (Gln30Ala, Glu106Ala, Thr132Ala and Asp205Ala) were generated by PCR using the QuikChange Lightning Site-Directed Mutagenesis Kit (Agilent Technologies). Mutations were confirmed by DNA sequencing. Mutants were expressed and purified as for the wild-type TauA.
as §1

[3] = molecular target: TauA Gln30Ala (Escherichia coli, UniProt Q47537, Q30A); test: biochemical; format: binding, E. coli; details: ITC, Gln30Ala mutant
Sequence of TauA Gln30Ala (Q47537 23-320 Q30A): as the sequence (Q47537 23-320) above, with Q8A counted along it
Experimental: as §2, §1

[4] = molecular target: TauA Thr132Ala (Escherichia coli, UniProt Q47537, T132A); test: biochemical; format: binding, E. coli; details: Thr132Ala mutant
Sequence of TauA Thr132Ala (Q47537 23-320 T132A): as the sequence (Q47537 23-320) above, with T110A counted along it
Experimental: as §2, §1

[5] = molecular target: TauA Glu106Ala (Escherichia coli, UniProt Q47537, E106A); format: binding, E. coli; details: ITC, Glu106Ala mutant
Sequence of TauA Glu106Ala (Q47537 23-320 E106A): as the sequence (Q47537 23-320) above, with E84A counted along it
Experimental: as §2
as §1, with “Values of binding constant (Ka, M^−1), enthalpy change (ΔH, J/mol) and binding stoichiometry (n) were allowed to vary (unless mentioned specifically) during the fitting procedure. The dissociation constant (Kd, M) and entropy change (ΔS, J/mol/K) were derived from Ka, ΔH and n accordingly. The Kd value is derived from the absolute value of Ka (Kd = 1/Ka).” left out

[6] = stoichiometry fixed to 0.8 during data fitting
[7] = ITC, 298 K, 20 mM Tris pH 7.5, 150 mM NaCl, read-out: Kd
[8] = ITC, read-out: Kd (apparent affinity)

Compound	heat of binding to TauA (exothermic/endothermic) ([1]; ITC)	ΔH ([1]; ITC, 298 K)	ΔS ([1]; ITC, 298 K)	Kd [1, 7]	Stoichiometry ([1]; ITC, fitted n)	Kd [1, 8]	other results
NCCP(=O)(O)O [2-AEP, 2-Aminoethylphosphonic acid]	endothermic	0.016 (±0.03%) kJ/mol	2.33 J/mol/K				Kd ([1]; Kd (apparent affinity), ITC): 649 µM; Kd ([1]; Kd, ITC, 298 K, 20 mM Tris pH 7.5, 150 mM NaCl): 649 µM; Stoichiometry [1, 6]: 0.8 ^*
NC(=O)CNCCS(=O)(=O)O [ACES, N-(2-acetamido)-2-aminoethanesulfonic acid]	exothermic	−1.44 (±3.3%) kJ/mol	1.87 J/mol/K	7.46 µM	0.79(±2.4%)	7.4 µM	
O=S(=O)(O)CCN1CCOCC1 [MES, 2-(N-morpholino)ethanesulfonate]	endothermic	4.74 (±0.8%) kJ/mol	2.45 J/mol/K	2.85 µM	0.868(±0.5%)	2.8 µM	
NCCS(=O)(=O)O [taurine, 2-aminoethanesulfonic acid]	exothermic	−61.04 (±0.08%) kJ/mol		0.0016 µM	0.768(±0.38%)		Stoichiometry [2, 6]: 0.8 ^*; ΔH ([2]; ITC): −34.83 (±2%) kJ/mol; ΔS ([2]; ITC): −2.34 J/mol/K; Kd ([2]; Kd, ITC, 298 K): 22.9 µM; Kd ([2]; affinity, ITC): 22.9 µM; ΔH [3]: −17.87 (±8%) kJ/mol; ΔS [3]: 3.72 J/mol/K; Stoichiometry ([3]; fitted n): 0.83(±6%); Kd ([3]; Kd, 298 K): 3.48 µM; Kd ([3]; affinity): 3.5 µM; ΔH ([4]; ITC): −28.76 (±8%) kJ/mol; ΔS ([4]; ITC): −0.54 J/mol/K; Kd ([4]; Kd, ITC, 298 K): 20.6 µM; Stoichiometry [4, 6]: 0.8 ^*; Kd ([4]; affinity, ITC): 20.6 µM; taurine binding affinity [5]: detrimental to taurine binding; also recorded: No binding affinity could be measured

Reference: PMC6906117, “Desolvation of the substrate-binding protein TauA dictates ligand specificity for the alkanesulfonate ABC importer TauABC” (Biochemical Journal, 2019)
